Results from patent US8809344B2, “Compounds, compositions, and methods for control of hepatitis C viral infections” (priority 2008, dated 2014).

Columns and labels:
[1] = system: all other chimeric replicons and the genotype 2a parental replicon; test: Other chimeric replicons and genotype 2a parental replicon in Huh7.5 cells; assay type: cell-based; settings: Hepatitis C virus
From the text: That NS4B is the target of 80978 was confirmed by a complementary approach. The differential response to 80978 by HCV genotype 1b and 2a replicons allowed the use of chimeric replicons to narrow down the region of the HCV genotype 1b NS4B coding region that confers sensitivity to 80978. The nucleotide sequence of the wild type HCV genotype 2a NS4B is provided as SEQ ID NO: 7 and the wild type HCV genotype 2a NS4B protein sequence is provided as SEQ ID NO:8. Using a plasmid containing an 80978-resistant stable HCV genotype 2a subgenomic reporter replicon cDNA, six replacement, or chimeric constructs were made, where the regions encoding the following amino acids of NS4B were replaced with the regions encoding the corresponding amino acids of NS4B from HCV genotype 1b: (i) 7-254, (ii) 7-52, (iii) 53-254, (iv) 219-254, (v) 7-52 and 219-254, and (vi) 53 to 218. The full-length NS4B protein is 261 amino acids in length and is provided as SEQ ID NO:2. Thus, if any of these segments of NS4B from genotype 1b are sufficient to confer 80978-sensitivity to a genotype 2a HCV replicon, it will render the chimeric genotype 1b/genotype 2a replicon sensitive to the compound.
Response to 80978 was measured initially in unselected cells. […] All of the chimeric and wild type control constructs were responsive to Cyclosporin A (CsA).

[2] = system: chimeric APV112 HCV (genotype 2a with genotype 1b NS4B amino acids 53 to 218); test: HCV APV112 viral infectivity assay in Huh7.5 cells, 3′NTR RNA by realtime quantitative PCR; assay type: cell-based, hepatitis C virus; settings: for Log change in 3′NTR copies relative to 1.0% DMSO (GAPDH normalized): 48 hours; for chimeric APV112 viral infectivity: sensitive genotype 1b NS4B region
Experimental: Inhibition of HCV infectivity by AP0080978 and its analogs (AP0080977, non-active enantiomer; AP0089652, racemate; and AP0080935, an aromatic, non-optically active analog of AP0080978) was assayed by exposing cells with infectious chimeric HCV virions in the presence of the compounds. This was accomplished by use of an HCV cell culture system essentially as described in Pietschmann, T. et al. (2006) 103(19): 7408-13, Proc. Natl. Acad. Sci. USA; and elsewhere. Two viral constructs were utilized to characterize inhibition of viral infectivity (FIG. 4). Construct APV23 (FL-J6/JFH) is a full-length, chimeric, genotype 2a HCV genome containing the HCV core through the NS2 first transmembrane domain coding region from the J6 HCV isolate linked to the second NS2 transmembrane domain NS3 through NS5B coding region of HCV strain JFH-1, as shown in FIG. 4 (i.e. an HCV chimera with the “C3 Junction” described in Pietschmann, T. et al. (2006) Proc. Natl. Acad. Sci. USA 103(19): 7408-13; see page 7409 and FIG. 2A of Pietschmann, T. et al.). Construct APV112 was generated by replacing nucleotides encoding amino acids 53 to 218 of the NS4B gene of the APV23 sequence with a corresponding sequence from a genotype 1b (Con1 strain).
Huh7.5 cells were plated at a density of 20,000 cells per well in 96-well plates. The cells were exposed to the chimeric HCV virions at a multiplicity of infection of 0.01. Potential inhibitory compounds were added simultaneously with the chimeric virus. Cells were incubated for 48 hours and then the levels of HCV 3′NTR and GAPDH RNA were quantified by realtime quantitative PCR. Data were analyzed by the comparative Ct method with delta-delta Ct determined relative to 1.0% DMSO. Results in FIGS. 5 and 6 are depicted as log change in 3′NTR copies relative to 1.0% DMSO.

[3] = ATP viability assay (CellTiter-Glo) in replicon-harboring Huh7.5 cells; assay type: cell-based, human; settings: human; 24 hours post-treatment; Huh7.5 cells harboring transient genotype 1b replicon
Experimental: Inhibition of HCV replication by AP0089652, AP0080978 (enantiomer 2 from Example 1) and AP0080977 (enantiomer 1 from Example 1) were assayed by exposing cells harboring an HCV genotype 1b replicons to the compounds and quantitating HCV replicon levels following exposure. The replicon used in these studies was a transient genotype 1b subgenomic replicon generated from the Con1 strain. In this replicon, the HCV internal ribosome entry site (IRES) within the 5′ non-translated region (NTR) drives expression of the first 32 amino acids of the core protein fused to humanized Renilla luciferase (hRluc). The encephalomycarditis IRES lies 3′ to the hRluc open reading frame (ORF) and drives expression of non-structural (NS) proteins NS3 through NS5B. Huh7.5 cells (U.S. patent application Ser. No. 10/534,571) harboring this replicon were seeded into 96-well plates at 20,000 cells per well in medium containing 10% FBS, 1× penicillin/streptomycin, 1× non-essential amino acids, and 100 ng/ml Fungizone. After a four hour attachment period, compound was added to wells using a five point 3-fold serial dilution series with four replicate treatments per dose. […] Compound-mediated HCV inhibition and toxicity were assayed 24 hours post-treatment using Renilla luciferase readout and an ATP viability assay (CellTiter-Glo, Promega, Madison, Wis., USA), respectively. […]

[4] = system: genotype 1a replicon H/FL-Neo(L+I) (H77 strain); test: Genotype 1a replicon in Huh7.5 cells, HCV RNA by blot hybridization; assay type: cell-based; settings: Hepatitis C virus, Huh7.5, 72 h

Q: What does the source list for `O=C(NCc1cccs1)c1nn2c(c1Cl)N[C@H](c1ccco1)C[C@@H]2C(F)(F)F` (single isomer, unassigned) [Compound 80978]?
A: EC50 [1]: > 20 µM; potency in viral infectivity assays relative to HCV replicon assays [2]: significantly more potent; greater log change relative to the log change of the 89652 racemate ([2]; 0.02 μM, APV112): 5.3 fold; Log change in 3′NTR copies relative to 1.0% DMSO (GAPDH normalized) ([2]; 0.02 μM, APV112): −0.79; Log change in 3′NTR copies relative to 1.0% DMSO (GAPDH normalized) ([2]; 0.07 μM, APV112): −1.29; Log change in 3′NTR copies relative to 1.0% DMSO (GAPDH normalized) ([2]; 0.22 μM, APV112): −1.52; Log change in 3′NTR copies relative to 1.0% DMSO (GAPDH normalized) ([2]; 0.67 μM, APV112): −1.67; Log change in 3′NTR copies relative to 1.0% DMSO (GAPDH normalized) ([2]; 2 μM, APV112): −1.49; potency relative to control HCV inhibitors 2′CMeA, VX-950, cyclosporin A and a-CD81 antibody (JS81) ([2]; FIG. 5, APV112): significantly more potent; chimeric APV112 viral infectivity ([2]; FIG. 5, listed as AP 80978): able to inhibit; chimeric APV112 viral infectivity ([2]; FIG. 5, listed as AP0080978): reduced; CC50 at 24 h [3]: > 100 µM; EC50 [4]: 7.8 µM
